The assay concerns the target PLK1 (polo-like kinase 1) (Homo sapiens, UniProt P53350). The assay can be described thus: radiometric […]-ATP kinase assay, casein substrate, […] ATP (Reaction Biology). In kind it is biochemical.

Sequence of PLK1 (polo-like kinase 1) (P53350 2-603): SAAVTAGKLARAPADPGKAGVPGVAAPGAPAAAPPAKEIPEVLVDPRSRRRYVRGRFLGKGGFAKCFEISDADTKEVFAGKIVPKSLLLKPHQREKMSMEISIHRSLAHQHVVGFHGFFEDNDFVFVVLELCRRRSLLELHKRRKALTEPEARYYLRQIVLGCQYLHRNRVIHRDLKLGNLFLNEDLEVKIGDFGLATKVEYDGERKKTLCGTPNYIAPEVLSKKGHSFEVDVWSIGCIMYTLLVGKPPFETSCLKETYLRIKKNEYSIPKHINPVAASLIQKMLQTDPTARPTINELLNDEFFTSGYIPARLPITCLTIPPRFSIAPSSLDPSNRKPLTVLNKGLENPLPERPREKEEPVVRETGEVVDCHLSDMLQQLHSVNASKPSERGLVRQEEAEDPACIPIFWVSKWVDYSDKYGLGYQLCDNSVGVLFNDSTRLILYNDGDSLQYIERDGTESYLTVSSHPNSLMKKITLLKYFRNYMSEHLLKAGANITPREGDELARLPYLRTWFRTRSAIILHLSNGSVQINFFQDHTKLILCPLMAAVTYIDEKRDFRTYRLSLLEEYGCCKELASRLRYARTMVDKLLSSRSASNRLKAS

As a reminder, the IC50 is the midpoint of a concentration-inhibition curve. Read a low IC50 as inhibition by little substance. `CCOC(=O)c1nn(-c2ccnc(Nc3ccc4c(c3)N(C(=O)N(C)C)CC4)n2)cc1/C=C/c1ccccc1` [D39, Ethyl (E)-1-(2-((1-(dimethylcarbamoyl)indolin-6-yl)amino)pyrimidin-4-yl)-4-styryl-1H-pyrazole-3-carboxylate] gave an IC50 of 1430 nM.
The compound `CN(C)C(=O)N1CCc2ccc(Nc3nccc(-n4cc(/C=C/c5ccccc5)c(C(N)=O)n4)n3)cc21` [D40, (E)-6-((4-(3-carbamoyl-4-styryl-1H-pyrazol-1-yl)pyrimidin-2-yl)amino)-N,N-dimethylindoline-1-carboxamide] showed a concentration for half-maximal inhibition (IC50) of 359 nM.

(Values after PMC9610081, “Design and Synthesis of Aminopyrimidinyl Pyrazole Analogs as PLK1 Inhibitors Using Hybrid 3D-QSAR and Molecular Docking” (Pharmaceuticals, 2022).)
